Values of other authors as cited in US20130079371A1, “Bioadhesive Compositions of Local Anaesthetics” (PHARMANEST AB, priority 2010, published 2013).

## CCCCN1CCCC[C@H]1C(=O)Nc1c(C)cccc1C [levobupivacaine]
  pKa: 8.1
